# Source: patent US6949557B2, “Hydroanthracene based compounds as anticancer agents” (Dabur Research Foundation, priority 2003, dated 2005)
# Key:
# [1] = test system: U87MG; assay: three day MTT cytotoxicity assay, U87MG; format: cell-based, human; details: 72 hours incubation, U87MG glioblastoma cells
# Description: (§1) A number of the anthracene based compounds were tested for cytotoxicity against 12 human tumor cell lines. Briefly, a three day MTT cytotoxicity assay was performed, which is based on the principle of uptake of MTT (3-(4,5-dimethylthiazol-2-yl)-2,5-diphenyl tetrazolium bromide), a tetrazolium salt, by the metabolically active cells where it is metabolized by active mitochondria into a blue colored formazan product that is read spectrophotometrically. MTT was dissolved in phosphate buffered saline with a pH of 7.4 to obtain an MTT concentration of 5 mg/ml; the resulting mixture was filtered through a 0.22 micron filter to sterilize and remove a small amount of insoluble residue. For each type of tumor cell, 10,000 to 15,000 cells were seeded in a 96-well culture plate and incubated with the individual anthracene based compounds in a CO2 incubator for a total of 72 hours. Control cells not treated with the anthracene based compounds were similarly incubated. The assay was terminated by adding 100 ug (20 ul) of MTT to each well, then incubating for additional one hour, and finally adding 50 ul of 10% SDS-0.01N HCl to each well to lyse the cells and dissolve formazan. After incubating for one hour, the plate was read spectrophotometrically at 540 nm and the percentage of cytotoxicity calculated using the following formula:
# (§2) Cytotoxicity percentage=100×[1−(X/R1)],
# (§3) where X=(absorbance of treated sample at 540 nm)−(absorbance of blank at 540 nm)
# (§4) R1=absorbance of control sample at 540 nm.
# (§5) The IC50 Values of the cytotoxicity defined as the concentration at which 50% of the cells are killed in vitro was calculated for each cell line treated with each of the anthracene based compounds.
# [2] = test system: PA1; assay: three day MTT cytotoxicity assay, PA1; format: cell-based, human; details: 72 hours incubation, PA1 ovarian cells
# Description: as §1, §2, §3, §4, §5
# [3] = test system: KB; assay: three day MTT cytotoxicity assay, KB; format: cell-based, human; details: 72 hours incubation, KB oral cells
# Description: as §1, §2, §3, §4, §5
# [4] = test system: MiaPaca2; assay: three day MTT cytotoxicity assay, MiaPaca2; format: cell-based, human; details: 72 hours incubation, MiaPaca2 pancreatic cells
# Description: as §1, §2, §3, §4, §5
# [5] = test system: Hep2; assay: three day MTT cytotoxicity assay, Hep2; format: cell-based, human; details: 72 hours incubation, Hep2 larynx cells
# Description: as §1, §2, §3, §4, §5
# [6] = test system: MCF7; assay: three day MTT cytotoxicity assay, MCF7; format: cell-based, human; details: 72 hours incubation, MCF7 breast cells
# Description: as §1, §2, §3, §4, §5
# [7] = test system: PTC; assay: three day MTT cytotoxicity assay, PTC; format: cell-based, human; details: 72 hours incubation, PTC colon cells
# Description: as §1, §2, §3, §4, §5
# [8] = test system: L132; assay: three day MTT cytotoxicity assay, L132; format: cell-based, human; details: 72 hours incubation, L132 lung cells
# Description: as §1, §2, §3, §4, §5
# [9] = test system: DU145; assay: three day MTT cytotoxicity assay, DU145; format: cell-based, human; details: 72 hours incubation, DU145 prostate cells
# Description: as §1, §2, §3, §4, §5
# [10] = test system: HT29; assay: three day MTT cytotoxicity assay, HT29; format: cell-based, human; details: 72 hours incubation, HT29 colon cells
# Description: as §1, §2, §3, §4, §5
# [11] = test system: MOLT4; assay: three day MTT cytotoxicity assay, MOLT4; format: cell-based, human; details: 72 hours incubation, MOLT4 leukemia cells
# Description: as §1, §2, §3, §4, §5
# [12] = test system: ECV304; assay: three day MTT cytotoxicity assay, ECV304; format: cell-based, human; details: 72 hours incubation, ECV304 endothelial cells
# Description: as §1, §2, §3, §4, §5
melting point,Compound,ED50 U87MG Glioblastoma [1],ED50 PA1 Ovarian [2],ED50 KB Oral [3],ED50 MiaPaca2 Pancreatic [4],ED50 Hep2 Larynx [5],ED50 MCF7 Breast [6],ED50 PTC Colon [7],ED50 L132 Lung [8],ED50 DU145 Prostate [9],ED50 HT29 Colon [10],ED50 MOLT4 Leukemia [11],ED50 ECV304 Endothelial [12]
,"COc1ccc(OC)c2c1CC1C(OC(=O)C(O)C(N)c3ccccc3)C(C)=CCC1C2(C)C (stereo not shown) [Compound 7, 3-Amino-2-hydroxy-3-phenyl-propionic acid 5,8-dimethoxy-2,10,10-trimethyl-1,4,4a,9,9a,10-hexahydro-anthracen-1-yl ester]",24 µg/mL,5.0 µg/mL,29 µg/mL,35 µg/mL,5.0 µg/mL,35 µg/mL,5.0 µg/mL,24 µg/mL,33 µg/mL,8.0 µg/mL,5.0 µg/mL,6.0 µg/mL
,"COc1ccc(OC)c2c1C[C@]1(C)C(OC(=O)[C@H](O)[C@@H](N)c3ccccc3)C(C)=CC[C@H]1C2(C)C (stereo partly shown) [Compound 11, 3-Amino-2-hydroxy-3-phenyl-propionic acid 5,8-dimethoxy-2,9a,10,10-tetramethyl-1,4,4a,9,9a,10-hexahydro-anthrcen-1-yl ester]",10 µg/mL,4 µg/mL,18 µg/mL,7 µg/mL,16 µg/mL,8 µg/mL,,21 µg/mL,10 µg/mL,27 µg/mL,<1 µg/mL,2 µg/mL
,"CC1=CCC2C(C)(C)C3=C(CC2(C)C1=O)C(=O)C=CC3=O (stereo not shown) [Compound 19, 6,9,9,10a-Tetramethyl-8a,9,10,10a-tetrahydro-8H-anthracene-1,4,5-trione]",16 µg/mL,15 µg/mL,62 µg/mL,80 µg/mL,26 µg/mL,18 µg/mL,40 µg/mL,6 µg/mL,15 µg/mL,33 µg/mL,4 µg/mL,6 µg/mL
125 to 140 °C,"CC1=CCC2C(CC3=C(C(=O)C=CC3=O)C2(C)C)C1=O (stereo not shown) [Compound 20, 6,9,9-Trimethyl-8a,9, 10,10a-tetrahydro-8H-anthracene-1,4,5-trione]",,,,,,,,,,,,
90 to 92 °C,"CC1=CCC2C(C)(C)C3=C(CC2(C)C1OC(=O)C1OC(C)(C)N(C(=O)OC(C)(C)C)C1c1ccccc1)C(=O)C=CC3=O (stereo not shown) [Compound 23, 2,2-Dimethyl-4-phenyl-oxazolidine-3,5-dicarboxylic acid 3-tert-butyl ester 5-(2,9a,10,10-tetramethyl-5,8-dioxo-1,4,4a,5,8,9,9a,10-octahydro-anthracen-1-yl) ester]",,,,,,,,,,,,
,"CC1=CCC2C(C)(C)C3=C(CC2(C)C1OC(=O)C(O)C(N)c1ccccc1)C(=O)C=CC3=O (stereo not shown) [Compound 24, 3-Amino-2-hydroxy-3-phenyl-propionic acid 2,9a,10,10-tetramethyl-5,8-dioxo-1,4,4a,5,8,9,9a,10-octahydro-anthracen-1-yl ester]",5 µg/mL,8 µg/mL,6.6 µg/mL,>100 µg/mL,14 µg/mL,>100 µg/mL,,>100 µg/mL,5 µg/mL,6 µg/mL,7 µg/mL,3 µg/mL
,"CC1=CCC2C(CC3=C(C(=O)C=CC3=O)C2(C)C)C1OC(=O)C1OC(C)(C)N(C(=O)OC(C)(C)C)C1c1ccccc1 (stereo not shown) [Compound 25, 2,2-Dimethyl-4-phenyl-oxazolidine-3,5-dicarboxylic acid 3-tert-butyl ester 5-(2,10,10-trimethyl-5,8-dioxo-1,4,4a,5,8,9,9a,10-octahydro-anthracen-1-yl) ester]",24 µg/mL,8 µg/mL,35 µg/mL,35 µg/mL,11 µg/mL,16 µg/mL,8 µg/mL,4 µg/mL,32 µg/mL,35 µg/mL,<1 µg/mL,5 µg/mL
,"CC1=CCC2C(CC3=C(C(=O)C=CC3=O)C2(C)C)C1OC(=O)C(O)C(N)c1ccccc1 (stereo not shown) [Compound 26, 3-Amino-2-hydroxy-3-phenyl-propionic acid 2,10,10-trimethyl-5,8-dioxo-1,4,4a,5,8,9,9a,10-octahydro-anthracen-1-yl ester]",24 µg/mL,19 µg/mL,31 µg/mL,35 µg/mL,20 µg/mL,32 µg/mL,5.0 µg/mL,10 µg/mL,26 µg/mL,6.5 µg/mL,5.0 µg/mL,29 µg/mL
137 to 140 °C,"CC1=CCC2C(C)(C)C3=C(CC2(C)C1OC(=O)c1cc(Cl)nc(Cl)n1)C(=O)C=CC3=O (stereo not shown) [Compound 27, 2,6-Dichloro-pyrimidine-4-carboxylicacid-2,9a,10,10-tetramethyl-5,8-dioxo-1,4,4a,5,8,9,9a,10-octahydro-anthracen-1-yl ester]",,,,,,,,,,,,
,"COc1ccc(OC)c2c1Cc1c(ccc(C)c1OC(=O)[C@H](O)[C@@H](N)c1ccccc1)C2(C)C [Compound 29, 3-Amino-2-hydroxy-3-phenyl-propionic acid 5,8-dimethoxy-2,10,10,-trimethyl-9,10-dihydro-anthracen-1-yl ester]",8.0 µg/mL,5.0 µg/mL,30 µg/mL,35 µg/mL,5.0 µg/mL,29 µg/mL,5.0 µg/mL,5.0 µg/mL,34 µg/mL,6.5 µg/mL,5.0 µg/mL,9.0 µg/mL
